{"source": "patent US12448358B2", "about": "“Inhibitors of protein arginine deiminase 1 and methods of preparation and use thereof” (University of Massachusetts, priority 2019, dated 2025)", "key": {"[1]": {"biological_target": "T1, PAD1 (Homo sapiens, UniProt Q9ULC6)", "T1 construct": "made in house", "T1 sequence (Q9ULC6 1-663)": "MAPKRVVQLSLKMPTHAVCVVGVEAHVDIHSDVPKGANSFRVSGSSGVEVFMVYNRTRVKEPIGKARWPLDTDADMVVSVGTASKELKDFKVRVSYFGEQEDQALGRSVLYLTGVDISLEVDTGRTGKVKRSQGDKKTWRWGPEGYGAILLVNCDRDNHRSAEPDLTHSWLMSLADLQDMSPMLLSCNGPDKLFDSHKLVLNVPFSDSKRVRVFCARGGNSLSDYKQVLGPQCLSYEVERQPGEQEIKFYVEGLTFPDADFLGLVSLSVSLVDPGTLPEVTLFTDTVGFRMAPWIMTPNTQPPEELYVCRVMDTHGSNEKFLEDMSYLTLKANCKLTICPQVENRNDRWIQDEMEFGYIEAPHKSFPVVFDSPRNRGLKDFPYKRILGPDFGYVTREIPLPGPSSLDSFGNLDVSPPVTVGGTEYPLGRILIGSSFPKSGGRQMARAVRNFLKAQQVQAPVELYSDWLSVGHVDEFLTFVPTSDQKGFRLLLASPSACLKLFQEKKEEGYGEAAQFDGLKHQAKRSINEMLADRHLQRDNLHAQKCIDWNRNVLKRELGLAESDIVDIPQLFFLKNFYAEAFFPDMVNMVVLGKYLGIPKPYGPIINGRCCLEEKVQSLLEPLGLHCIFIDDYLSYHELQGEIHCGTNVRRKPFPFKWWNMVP", "test": "Target engagement assay: labelling of PAD1 in HEK293TPAD1 cells with 21 in the presence of inhibitor", "type": "cell-based", "details": "5 μM of 21, 3 h, read-out: EC50 of inhibition of labelling of PAD1 by 21", "experimental": "Target Engagement Assay—Labelling of PAD1 in HEK293TPAD1 cells with 21 in the presence of 1. This study followed a similar procedure to that described for the dose-dependent labelling of PAD1 in HEK293TPAD1 cells with 21. Briefly, HEK293TPAD1 cells were treated with 1 mM CaCl2, 5 μM ionomycin, 5 μM of 21, and increasing concentrations (0-50 μM) of 1 in serum-free DMEM for 3 h. Cells were scraped, harvested by centrifugation at 3,000 rpm for 5 min and resuspended in 1×PBS. Lysis was carried out by sonicating the cells with a probe sonicator and lysates were clicked with TAMRA-N3 in the presence of TCEP, TBTA and CuSO4 as described above. Protein bands were separated by SDS-PAGE and were visualized by recording in-gel fluorescence. […] All the experiments were performed at least in duplicate."}, "[2]": {"biological_target": "T1, PAD1", "test": "Limit of detection of PAD1 labelling in HEK293TPAD1 cells by probe", "type": "cell-based", "details": "5 μM probe, 3 h; calculated from PAD1 content 0.06% of the total protein", "experimental": "FIG. 16. (A) Time-dependent labelling of PAD1 in HEK293TPAD1 cells by 21. HEK293TPAD1 cells were treated with 21 (5 μM) in serum-free DMEM for various times. After the treatment, cells were harvested and flash-frozen in liquid nitrogen. Cell lysates were treated with TAMRA-N3, TCEP, TBTA and CuSO4 for 2 h at room temperature. Time-dependent labelling of PAD1 by 21 was recorded on a Typhoon scanner. (B) Limit of detection of PAD1 in HEK293TPAD1 cells by 21. For this study, cells were treated with 5 μM of 21 in serum-free DMEM for 3 h and decreasing amounts (indicated by total protein content) of lysates were clicked with TAMRA-N3 in the presence of TCEP, TBTA and freshly prepared CuSO4. […] F stands for fluorograph.\nDose-dependent Labelling of PAD1 in HEK293TPAD1 cells with 21. HEK293TPAD1 cells were plated in 6-well plates at a density of ˜1×10^6 cells/well and were allowed to grow in DMEM (supplemented with 10% heat-inactivated fetal bovine serum, 100 units/mL penicillin, 100 μg/mL streptomycin and 0.15 mg/mL hygromycin B) for 12 h. […] Soluble proteins in the lysate were quantified by DC-assay (Bio-Rad). […] Protein bands were visualized by recording in-gel fluorescence using a typhoon scanner (approximate excitation/emission maxima ˜546/579, respectively). […]"}, "[3]": {"biological_target": "T1, PAD1", "test": "Limit of detection for in vitro labelling of recombinant PAD1 by probe", "type": "binding", "details": "10 μM probe, conjugated with TAMRA-N3 using CuAAC", "experimental": "Dose-dependent in vitro Labelling of Recombinant PADs with 21 and 22. A PAD (1.4 μM) was added to a prewarmed (10 min at 37° C.) reaction mixture (25 mM TRIS pH 7.4, 10 mM NaCl, and 5 mM CaCl2) containing various concentrations of 21 or 22 (or equal volume of DMSO for control). The mixture was incubated at 37° C. for 15 min. Then TAMRA-N3 (50 μM), TCEP (1 mM), TBTA (0.3 mM) and freshly prepared copper (II) sulphate (1 mM) were sequentially added to the reaction mixture and the tubes were gently tumbled at room temperature for 2 h. Then the reactions were quenched with 5×SDS-PAGE loading dye, heated at 95° C. for 15 min and loaded onto 4-15% gradient SDS-PAGE gel. Protein bands were visualized by recording in-gel fluorescence using a typhoon scanner (approximate excitation/emission maxima ˜546/579, respectively). All the experiments were performed at least in duplicate.\nLimit of Detection for in vitro Labelling of Recombinant PADs with 21 and 22. Various concentrations of PAD were added to prewarmed (10 min at 37° C.) reaction mixtures (25 mM TRIS pH 7.4, 10 mM NaCl, 5 mM CaCl2) containing 10 μM of 21 or 22. […] Protein bands were visualized by recording in-gel fluorescence using a typhoon scanner (approximate excitation/emission maxima ˜546/579, respectively). […]"}}, "data": [{"smiles": "N=C(CF)NCCC[C@H](NC(=O)c1cc(I)cc(I)c1O)c1nc2ccccc2[nH]1", "note": "[Compound 1]", "values": [{"measurement": "EC50", "setting": "[1]", "value": 12.7, "unit": "µM"}]}, {"smiles": "C#Cc1c(I)cc(C(=O)N[C@@H](CCCNC(=N)CF)c2nc3ccccc3[nH]2)c(O)c1I", "note": "[Compound 21]", "values": [{"measurement": "LOD of PAD1 in HEK293TPAD1 cells", "setting": "[2]", "value": 72, "unit": "pmol"}, {"measurement": "limit of detection (LOD) of recombinant PAD1", "setting": "[3]", "value": 4.3, "unit": "pmol"}]}]}
